Converted amounts (≈) assume the structure as drawn. “And” between values parts separate entries of the source, which are not always exact repeats. Equal entries are not always repeated. Where two headings read alike, the source gives them in different places. Each block holds one compound with its values, some of them ahead of it.
Key:
[1] = In vivo pharmacokinetic study in SD rats; conditions: rat, plasma, SD male rats, oral, 30 mg/kg
Procedure: The test compound was mixed with 5% dimethyl sulfoxide/10% polyoxyethylene stearate/85% aqueous solution, and the mixture was vortexed and sonicated to prepare a 3 mg/mL clear solution for later use. SD male rats aged 7 to 10 weeks were selected and orally administered with a dose of the candidate compound at 30 mg/kg. Whole blood was collected at certain time points, and plasma was separated. The drug concentration was measured by LC-MS/MS, and pharmacokinetic parameters were calculated using Phoenix WinNonlin software (Pharsight, USA).

[2] = Equilibrium solubility experiment for biological media and pH buffers; assay type: physicochemical
Procedure: The taken samples were centrifuged, the supernatant of the samples was taken and diluted by a proper time after pH was determined, and the concentration of the supernatant was determined by UPLC.
Diluent: acetonitrile:water (1:1)
Mobile phase A: 0.1% aqueous FA solution
Mobile phase B: 0.1% FA ACN/MeOH (1:1) solution
Two parts of control solutions were prepared in parallel, and labeled STD #1 and STD #2, respectively.
The control solution STD #1 was taken and diluted by 1, 5, 10, 100, 1000, 2000 times, and recorded as linear solutions L1, L2, L3, L4, L5 and L6. The sample diluted by 2000 times was recorded as LOQ.

[3] = Study of hygroscopicity (25° C., 80% relative humidity, 24 h); assay type: physicochemical; conditions: relative humidity 80%
Source text: Calculation: weight gain %=(m3−m2)/(m2−m1)×100%

[4] = Study of approximate solubility in water; assay type: physicochemical; conditions: room temperature, dissolution determined by the naked eye
Procedure: About 2.0 mg of samples were weighed and added into 1.5 mL glass vials, water was gradually added using pipetting gun, and the mixture was dissolved by sonication as appropriate. The test was conducted at room temperature and the dissolution was determined by the naked eye, and the approximate solubility results are shown in Table 10.

[5] = Study of polycrystalline forms (solution suspension crystallization, XRPD); assay type: physicochemical; conditions: 13 single or mixed solvents of Table 7, stirred 2 days at 50° C.
Procedure: Then, samples of the aforementioned suspensions were stirred for 2 days on a constant-temperature heating stirrer at 50° C. The reaction system was cooled to room temperature, filtered and concentrated to remove the solvent, to give samples, and XRPD testing was performed on the samples.

[6] = Study of solid stability (accelerated conditions, XRPD); assay type: physicochemical; conditions: 40° C./75% RH 2 and 3 months; 60° C./75% RH 1 and 2 months
Procedure: The samples were placed at (40° C./75% RH) for 2 months and 3 months and at (60° C./75% RH) for 1 month and 2 months, and the placed samples were characterized by XRPD. The test results were compared with the initial test results of 0 days.

bioavailability ([1]; read-out: Bioavailability F (%)): 62%
AUC(0-t) ([1]; read-out: Area under plasma concentration-time curve AUC0-last): 10.6 µM·h
Cmax ([1]; read-out: Peak concentration Cmax): 1580 nM
Tmax ([1]; read-out: Time to peak Tmax): 3 h
solubility at 24 h ([2]; aqueous buffer, thermodynamic from solid, pH = 6.00 buffer, 37° C., 24 h, pH (24 h) 5.12, white suspension, read-out: Solubility (mg/mL) _24 hr): 1.3 mg/mL (≈ 2.34 mM)
solubility at 24 h ([2]; pH 1.77, simulated gastric fluid, thermodynamic from solid, SGF, 37° C., 24 h, pH (24 h) 1.77, opalescent and opaque, read-out: Solubility (mg/mL) _24 hr): 10.5 mg/mL (≈ 18.9 mM)
solubility at 24 h ([2]; pH 2.00 and pH 3.8 buffers, 37 °C, simulated gastric fluid, thermodynamic from solid, at pH=1.00, pH=2.00, pH=3.8, water and SGF, read-out: solubility): > 10 mg/mL
solubility at 24 h ([2]; pH 3.8, aqueous buffer, thermodynamic from solid, pH = 3.80 buffer, 37° C., 24 h, pH (24 h) 2.61, opalescent and opaque, read-out: Solubility (mg/mL) _24 hr): 10.2 mg/mL (≈ 18.4 mM)
solubility at 24 h ([2]; pH 4.5, aqueous buffer, thermodynamic from solid, pH = 4.50 buffer, 37° C., 24 h, pH (24 h) 4.12, white suspension, read-out: Solubility (mg/mL) _24 hr): 10.3 mg/mL (≈ 18.5 mM)
solubility at 24 h ([2]; pH 4.75, thermodynamic from solid, FeSSIF, 37° C., 24 h, pH (24 h) 4.75, white suspension, read-out: Solubility (mg/mL) _24 hr): 1.32 mg/mL (≈ 2.38 mM)
solubility at 24 h ([2]; pH 5.5, aqueous buffer, thermodynamic from solid, pH = 5.50 buffer, 37° C., 24 h, pH (24 h) 5.26, white suspension, read-out: Solubility (mg/mL) _24 hr): 0.31 mg/mL (≈ 0.558 mM)
solubility at 24 h ([2]; pH 6.04, thermodynamic from solid, FaSSIF, 37° C., 24 h, pH (24 h) 6.04, white suspension, read-out: Solubility (mg/mL) _24 hr): 0.14 mg/mL (≈ 0.252 mM)
solubility at 24 h ([2]; pH 6.8, aqueous buffer, thermodynamic from solid, pH = 6.80 buffer, 37° C., 24 h, pH (24 h) 6.57, white suspension, read-out: Solubility (mg/mL) _24 hr): 0.05 mg/mL (≈ 0.09 mM)
solubility at 24 h ([2]; pH 7.4, aqueous buffer, thermodynamic from solid, pH = 7.40 buffer, 37° C., 24 h, pH (24 h) 7.07, white suspension, read-out: Solubility (mg/mL) _24 hr): 0.0012 mg/mL (≈ 0.00216 mM)
solubility at 24 h ([2]; simulated gastric fluid, thermodynamic from solid, pH = 1.00 buffer, 37° C., 24 h, pH (24 h) 1.11, opalescent and opaque, read-out: Solubility (mg/mL) _24 hr): 10.5 mg/mL (≈ 18.9 mM)
solubility at 24 h ([2]; simulated gastric fluid, thermodynamic from solid, pH = 2.00 buffer, 37° C., 24 h, pH (24 h) 1.90, opalescent and opaque, read-out: Solubility (mg/mL) _24 hr): 10.5 mg/mL (≈ 18.9 mM)
solubility at 24 h ([2]; water, pH 2.29, water, thermodynamic from solid, H2O, 37° C., 24 h, pH (24 h) 2.29, opalescent and opaque, read-out: Solubility (mg/mL) _24 hr): 9.12 mg/mL (≈ 16.4 mM)
Structure (SMILES): COC(=O)N1CCN([C@H]2CC[C@H](Nc3nc(Nc4cnn(C5CCOCC5)c4)nc4snc(C)c34)CC2)CC1

Weight gain % Average value ([3]; average of two samples): 1.3%
Weight gain % ([3]; single samples No. 1 and 2): 1.34% and 1.22%
Approximate solubility [4]: >100000 µg/mL
solubility description (Chinese pharmacopoeia) ([2]; at pH=4.50): minimally soluble
solubility description (Chinese pharmacopoeia) ([2]; at pH=5.00 and FaSSIF): very slightly soluble
solubility description (Chinese pharmacopoeia) ([2]; at pH=6.00 and FeSSIF): slightly soluble
solubility description (Chinese pharmacopoeia) ([2]; at pH=6.80 and pH=7.40): almost insoluble or insoluble
crystal form under all stability conditions [6]: unchanged
Structure (SMILES): COC(=O)N1CCN([C@H]2CC[C@H](Nc3nc(Nc4cnn(C5CCOCC5)c4)nc4snc(C)c34)CC2)CC1 [Crystalline form A of the compound of formula (II)]
Determination result (hygroscopicity) [3]: Slightly hygroscopic (0.2% to 2% weight gain)
crystalline form after suspension stirring (XRPD) [5]: all samples were the crystalline form A of the compound of formula (II)

Approximate solubility [4]: <1000 µg/mL
Structure (SMILES): COC(=O)N1CCN([C@H]2CC[C@H](Nc3nc(Nc4cnn(C5CCOCC5)c4)nc4snc(C)c34)CC2)CC1 [Compound of formula (I)]

Source: patent US12358927B2, “IRAK4 inhibitor crystal and preparation method therefor” (CHIA TAI TIANQING PHARMACEUTICAL GROUP CO., LTD., priority 2020, dated 2025)
